The source of these data is patent US20090291156A1, “HERBAL COMPOSITION FOR SKIN CARE” (SAGITTARIUS LIFE SCIENCE CORP., priority 2008, published 2009).

The test system of experiment [1] is dermal fibroblast collagen and glycosaminoglycan synthesis. Briefly: Stimulation of dermal fibroblast collagen and glycosaminoglycan synthesis (Sirius red, Safranin O, Alcian blue staining). Format: cell-based, Human. On the procedure: Human foreskin dermal fibroblasts were cultured in DMEM+10% FCS+Penicillin G (100 unit/ml)/Streptomycin (100 ug/ml)+Glutamine (2 mM)+Sodium pyruvate (0.1 mM) (C-medium) under humidifying atmosphere containing 5% CO2 at 37° C.
5×10^4 cells were plated into each well of 48 multiwell plate. Three to four days later, the cells reached confluency. The medium was replaced with fresh C-medium with or without H2O2 containing 25 ug/ml vitamin C with herbal preparations, Genistein or vitamin A. After treatment for 7 days, the cells were fixed with 10% formalin in saline, and stained with Sirius red, Safranin O or Alcian blue (at pH2.5 for hyaluronic acid staining). The relative amount of extracellular matrix deposition was estimated by visual comparison of the intensity and area of the respective stains.
At the end of treatments, the cells were washed twice with PBS, and were irradiated by UV (365 nm) at 20 mJ/cm^2 in PBS. Fresh serum free medium was replaced, and the cells were fixed and stained 24 hours later.

Experiment [2] is described as follows: Radical scavenging activity examined by DPPH. Format: biochemical. The following applies: 0.1 mM DPPH, 30 minutes. On the procedure:
Herbal preparations with the designated final concentrations was mixed with 0.1 mM DPPH (2,2-diphenyl-1-picrylhydrazyl), incubated at room temperature in dark for 30 minutes. Absorbance at 517 nm was read by Varian Cary 50 Tablet UV-Visible Spectrophotometer. Vitamin C and vitamin E served as positive controls.

On to Vitamin A, for which the “activity on collagen and glycosaminoglycan synthesis (words, FIG. 2)” value in experiment [1] (1 μM, in the presence of 0.05 mM H2O2) is “did not show significant activity”. Also, the “activity on collagen and glycosaminoglycan synthesis compared to control (words, FIG. 1)” value in experiment [1] (1 μM, without H2O2) was “did not show significant activity”. In experiment [1] (10 μM, UV 365 nm at 20 mJ/cm^2), the “effect on collagen and glycosaminoglycan synthesis (words, Table 5)” value is reported as “did not show significant effect”. The “effect on collagen and glycosaminoglycan synthesis (words, Table 4)” value in experiment [1] (10 μM, no UV) was “did not show significant effect”.
In the case of `O=C1O[C@H]([C@@H](O)CO)C(O)=C1O` [Vit. C, Vitamin C], the “% DPPH radical scavenging” value amounted to 75.0% in experiment [2] (0.001 mM) and 99.3% in experiment [2] (0.01 mM).
For vitamin E [Vit. E], the “% DPPH radical scavenging” value was 70.1% in experiment [2] (0.01 mM) and 86.8% in experiment [2] (0.1 mM).
On to `O=c1c(-c2ccc(O)cc2)coc2cc(O)cc(O)c12` [Genistein], for which, in experiment [1] (10 μM, in the presence of 0.1 mM H2O2), the “effect on collagen and glycosaminoglycan synthesis (words, Table 3)” value is listed as “did not show significant effect”. Further, in experiment [1] (10 uM, without H2O2), the “effect on collagen and glycosaminoglycan synthesis (words, Table 2)” value was “did not show significant effect”.
